In paper PMC9369610, “Pro-Apoptotic and Pro-Autophagic Properties of Cardenolides from Aerial Parts of Pergularia tomentosa” (Molecules, 2022):

Assays:
[1] = system: MRC5 cells; assay: MTT cell viability assay, IC50 in MRC5 cells; type: cell-based; settings: Homo sapiens, 24 h, SE less than 10% of value
Experimental: The human liver hepatocellular carcinoma cell line, HepG2, and the human adenocarcinoma of colon cell line, Caco-2, were cultured in Eagle’s Minimum Essential medium supplemented with 1% (v/v) non-essential amino acids, 0.2 mM L-glutamine, 50 units/mL penicillin, 50 μg/mL streptomycin and 10% (v/v) or 20% (v/v) fetal bovine serum (Sigma Aldrich, Milan, Italy) for HepG2 or Caco-2, respectively. The human embryonal lung fibroblast cell line, MRC5, was cultured in Dulbecco’s Modified Eagle medium (Sigma Aldrich, Milan, Italy) supplemented with 10% (v/v) fetal bovine serum, 0.2 mM L-glutamine, 50 units/mL penicillin and 50 μg/mL streptomycin. HUVEC cells were cultured in endothelial growth medium-2, supplemented with fetal bovine serum (2%), VEGF (0.1%), rH FGF-B (0.4%), rH EGF (0.1%), GA-1000 (0.1%), hydrocortisone (0.04%), R3-IGF-1 (0.1%), heparin (0.1%) and ascorbic acid (0.1%). Cells were maintained at 37 °C in a 5% CO2, 95% air-humidified atmosphere and passaged twice a week. Cell lines were obtained from Interlab Cell Line Collection, Istituto Nazionale per la Ricerca sul Cancro, Genoa, Italy. HUVEC were obtained from Lonza (Milan, Italy).
An MTT assay was used to analyse cell viability. Cells were seeded in 96 wells at the density of 2 × 10^4/cm^2 and, after 24 h, they were treated with P. tomentosa compounds or with the vehicle (DMSO). After a further 24 h of treatment, 0.5 mg/mL of MTT was added to the cell medium and incubated for 1.5 h at 37 °C. The resulting formazan crystals were dissolved in 100 μL of DMSO and absorbances were measured at 595 nm and 655 nm. The background signals at 655 nm were subtracted from 595 nm signals, and data were expressed as a percent of cell viability. The concentration of each compound that is required for 50% inhibition in vitro (IC50) was calculated as described in Husseini et al.. IC50 values were obtained for Caco-2, HepG2 and MRC5 cells by performing MTT assays with concentrations ranging from 0.01 μg/mL to 5 μg/mL.

[2] = system: HepG2 cells; assay: BrdU incorporation (proliferation) assay; type: cell-based, human; settings: HepG2, 1 μM, 24 h
Experimental: Cell proliferation was analysed by a BrdU (Roche Diagnostics SpA, Monza, Italy) incorporation assay, as previously described. Briefly, HepG2 cells, seeded at adensity of 3 × 10^3/cm^2 on round glass cover slips, were treated for 24 h with P. tomentosa compounds at 1 μM. Then, BrdU was added to cell medium (final concentration, 100 μM) for 1 h. Cells were fixed (in 3% paraformaldehyde, 10 min), permeabilised (in 0.2% Triton X-100, 5 min) and treated with HCl 1.5 N (5 min). Finally, cover slips were incubated with a monoclonal antibody against BrdU (Sigma-Aldrich, Milan, Italy), 1:100, and with a TRITC-conjugated secondary antibody, 1:100. After staining with Hoechst, cover slips were mounted with Mowiol (Sigma, Milan, Italy). […] Images were acquired with Axiocam MRc5 and processed with ImageJ Launcher. The number of cells into S-phase was expressed as the ratio between the number of cells incorporating BrdU and the total number of cells.

[3] = system: HepG2 cells; assay: Transwell migration assay; type: cell-based, human; settings: HepG2, 1 μM, 18 h
Experimental: Transwell filters (coated with collagen) in serum-free media containing 0.1% of BSA, with a PET membrane with 8 μm pores (BD Biosciences, Milan, Italy), were rehydrated for 2 h at 37 °C. HepG2 were seeded in the upper chambers at a density of 75 × 10^3 cells in MEM with 0.1% BSA and treated with or without 1 µM of Pergularia compounds. MEM−0.1%BSA, supplemented with 10% FBS, was added to the lower chamber as chemoattractant. Control wells without 10% FBS were included to assess random migration. After incubation at 37 °C in 5% CO2 for 18 h, the migrated cells were fixed with 4% paraformaldehyde for 5 min, permeabilised with methanol for 20 min and stained with crystal violet 0.5% for 15 min at room temperature. The cells on the lower side of the filter were allowed to dry before counting. Eight separate bright-field images were randomly acquired of each filter using an Olympus CKX41 Image Analyzer. The cells in each image were counted and analysed compared to control-transfected cells.

## C[C@@H]1C[C@@H](O)[C@]2(O)O[C@@H]3C[C@@]4(C=O)[C@@H](CC[C@@H]5[C@@H]4CC[C@]4(C)[C@@H](C6=CC(=O)OC6)CC[C@]54O)C[C@H]3O[C@@H]2O1 [Compound 5, calactin]
[1]
  IC50: 990 nM
[2]
  effect on BrdU incorporation / cell cycle progression: significantly affected cell cycle progression
[3]
  effect on transwell migration: most potent
